Values of other authors, collected in patent publication US12133847B2, “Pharmaceutical composition and preparation method therefor” (Shenzhen Pharmacin Co., Ltd., priority 2014, dated 2024).
Structures can show the parent of a compound that is named as a salt. Where two headings read alike, the source gives them in different places.

Experiments:
[1] = in vivo

SMILES | Solubility (in acidic media) | Solubility (in neutral and alkaline media) | Solubility (physiological conditions, in the intestine near pH 7.0) | Oral bioavailability [1]
CCCCCCOC(=O)NC(=N)c1ccc(NCc2nc3cc(C(=O)N(CCC(=O)OCC)c4ccccn4)ccc3n2C)cc1 [Dabigatran etexilate mesylate, dabigatran etexilate mesylate] | high solubility | very poor solubility | substantially insoluble | 
[H]/N=C(/N)c1ccc(NCc2nc3cc(C(=O)N(CCC(=O)O)c4ccccn4)ccc3n2C)cc1 [dabigatran] |  |  |  | very low oral bioavailability
